The values below come from patent publication US20120277440A1, “IMINO DERIVATIVES, PROCESS FOR PREPARATION THEREOF, AND IN[…]” (MEIJI SEIKA PHARMA CO., LTD., priority 2010, published 2012).

For the compound `CC(=O)N=C1SCCN1Cc1ccc(Cl)nc1`, the melting point lay within 76 to 78 °C.
`CCS(=O)(=O)N=C1SCCN1Cc1ccc(Cl)nc1` displayed a melting point of 125 to 126 °C.

One may read the melting point as the temperature, or range, at which the solid turns liquid.
